According to US6881824B1, “Peptides suitable for use in antigen specific immunosuppressive therapy” (Akzo Nobel N.V., priority 1996, dated 2005):
Ends that are not written are not given here.

B1: HC gp-39 peptide 56 (residues printed as 352-377) (peptide)
peptide: WALDLDDFQGSFCGQD
notes: A 16-mer starting at 352 would end at 367, so this is probably a misprint

How the values were obtained:
[1] = target: T1, DR4 (DRB1*0401) molecules (Homo sapiens, UniProt P01903+P01911, A100K/A169T/F76Y/I96L/K127E/L162R/M171V/N62H/P40V/Q125Y/R42H/S133A/S149N/S66Y/V115G/V209L/W38E); assay: Peptide HLA-DR binding assay (semi-quantitative competition binding); conditions: for IC50: competition with biotinylated marker peptide HA 309 Y→F, pH5.0, 44 hr RT
T1 construct: molecules were purified from the homozygous EBV-transformed human B lymphoblastoid cell lines Huly138IC2 and BM92 using the mAb; endogenous in cells
Protocol: DR4 (DRB1*0401) and DR4 (DRB1*0404) molecules were purified from the homozygous EBV-transformed human B lymphoblastoid cell lines Huly138IC2 and BM92 using the mAb t243, directed against a monomorphic determinant on the DR-complex (Lampson, L. A and R. Levy (1980), J. Immunol. 125:293 299).
The peptide binding studies were performed using a semi-quantitative competition binding assay (Joosten et al 1994, Int. Immunol. 6, 751). Briefly, purified HLA-DR molecules (30 nM DR4(DRB1*0401) or 15 nM DR4 (DRB1*0404) were incubated at pH5.0 with 50 nM biotinylated marker peptide (HA 309y→F) and a concentration range of competitor peptide in a final volume of 25 μl binding buffer (PBS containing 0.01% […], 0.05% NP-40, 5% DMSO, 1 mM AEBSF, 1 mM N-ethyl maleimide, 8 mM EDTA and 10 μm pepstatin A). After 44 hr of incubation at RT, HLA DR bound marker peptide was separated from free marker peptide using a 96 well vacuum dotblot apparatus (Hybri. dot, BRL) and a nitrocellulose membrane (Hybond ECL, Amersham, UK). The nitrocellulose filters were blocked with 0.5% DNA blocking reagent (Boehringer) in 0.1 M maleic acid, 150 mM NaCl, pH7.5.
After 0.5-1 hr, the filters were washed in PBS, 0.05% Tween 20 (Sigma) and incubated with Strepcavidin-HRPO (Southern Biotechnology) in a 1:10.000 dilution. Biotinylated peptides were detected by enhanced chemiluminescence using a Western Blot ECL kit (Amersham). Exposure of the preflashed films (Hyperfilm-ECL, Amersham) was for 10 min. The spots were analysed by scanning the films and using Image Quant/Excel software for analysis.
The affinity of a given peptide for binding DRB1*0401-encoded molecules was related to competition with the marker peptide. This relative binding affinity was defined as the peptide concentration at which the signal was reduced to 50% (IC50).

[2] = system: PBMC from healthy donors carrying the DR4 (DRB1*0401) specificity; assay: Peptide-induced proliferative responses of PBMC from healthy donors; assay type: cell-based, human; conditions: for Responses induced only in healthy donors: healthy donors 230, 235
Protocol: Peripheral blood samples from 5 healthy donors carrying the DR4(DRB1*0401) specificity were obtained with informed consent and included in this study as a control.
(§1) In order to identify T-cell epitopes within HC gp-39, 59 peptides of 16 AA in length, overlapping by 10 AA were tested for their capacity to induce a proliferative response in PBMC from RA patients and healthy controls carrying the DR4 (DRB1*0401) specificity (Table 1).
(§2) PBMC obtained from heparinized venous peripheral blood were isolated by standard centrifugation on a Ficoll-Paque gradient. Cells were cultured in four-fold at a concentration of 1,5×10^5 cells/well in medium supplemented with 10% heat-inactivated, autologous plasma, L-glutamine, 2-ME and antibiotics in flatbottomed microtiter plates. Cells were incubated in medium alone or in the presence of phytohaemagglutinin (PHA) (2:5 μg/ml) to assert cell viability, or in the presence of 10 or 100 μg/ml of the HC gp-39-derived peptides. In several cases, sets of 2 or 3 sequential peptides were tested due to limited PBMC numbers of individual donors. Cultures were incubated in a total volume of 210 μl for 7 days at […] in a humidified atmosphere of 5% CO2. Cultures were pulsed during the last 18 hours with 0.25 μCi ^3H-thymidine ([^3H]TdR). Cells were harvested on glassfiber filters and [^3H] TdR incorporation was measured by gas scintillation (Packard Matrix 96 βcounter). Only peptides inducing a proliferative response at both 10 and 100 μg/ml were considered to contain a T-cell epitope. Responses were defined positive if stimulation index values (SI, antigen-specific counts per 5 min (cp5 m)/background cp5 m) exceeded or equaled 2.
(§3) T-cell reactivity to HC gp-39-derived peptide as analyzed by measuring the PBMC proliferative response in DR4 (DRB1*0401)-positive RA patients and healthy donors. Proliferative responses were tested in autologous plasma. In Table IIIA and IIIB the results of 7 experiments are presented showing the responses of RA patients (Table IIIA) and the responses of healthy donors (Table IIIB) to 59 overlapping sequences derived from HC gp-39.

[3] = system: PBMC from RA patients and healthy controls carrying the DR4 (DRB1*0401) specificity; assay: Proliferative responses of blood mononuclear cells, RA patients and healthy donors taken together; assay type: cell-based, human; conditions: individual peptides; any donor
Protocol: as §1, §2, §3

[4] = system: PBMC from RA patients carrying the DR4 (DRB1*0401) specificity; assay: Peptide-induced proliferative responses of PBMC from RA patients; assay type: cell-based, human; conditions: for Peptide-induced proliferative response of PBMC, RA 272: RA patient 272, 0401, R; for Responses to peptides observed in RA patients only: compared with healthy donors; for Peptide-induced proliferative response of PBMC, RA 286: RA patient 286, 0401, R; for Peptide-induced proliferative response of PBMC, RA 259: RA patient 259, 0401, R; for Peptide-induced proliferative response of PBMC, RA 276: RA patient 276, 0401, R
Protocol: This study included 7 DR4(DRB1*0401)-positive patients diagnosed as suffering from RA according to the ARA criteria (Arnett et al., (1988), Arthritis Rheum. 31, 315). Peripheral blood samples were obtained with informed consent. There were five women and two men aged 46-79 years. Their duration of disease ranged from over 10 to over 30 years. Three out of 7 patients had at least 3 swollen joints. […] All patients were on medication: Four patients were treated with prednisone, three patients received anti-rheumatic agents and 4 patients were treated with NSAID's as well.
as §1, §2, §3

[5] = target: T2, DR4 (DRB1*0401) molecules purified from the homozygous EBV-transformed human B lymphoblastoid cell line … (human, UniProt P01903 26-254); assay: competition binding assay on purified DR4(DRB1*0401)
T2 construct: mature; That form is inferred from purification of the native complex

[6] = 100 and 10 microgram/ml, 7 days, 3H-thymidine incorporation

IC50 ([1]; Table IIIB)	binding result [5]	Molecule	Relative affinity of binding to DR4 (DRB1*0401), in words [1]	Peptide-induced proliferative response of PBMC, HD 235 ([2]; healthy donor 235, 0401, R, 100 and 10 microgram/ml, 7 days, 3H-thymidine incorporation)	Responses induced only in healthy donors [2]	Responses to the individual peptides (PBMC proliferation), identifying T-cell epitopes [3]	IC50 ([1]; Table IIIA)	Peptide-induced proliferative response of PBMC, RA 272 [4, 6]	Response of PBMC from RA patient 272 to individual peptides, in words [4]	Responses to peptides observed in RA patients only [4]	Peptide-induced proliferative response of PBMC, RA 286 [4, 6]	Peptide-induced proliferative response of PBMC, RA 259 [4, 6]	Peptide-induced proliferative response of PBMC, RA 262 ([4]; RA patient 262, 0401, R, 100 and 10 microgram/ml, 7 days, 3H-thymidine incorporation)	Peptide-induced proliferative response of PBMC, RA 276 [4, 6]	Peptide-induced proliferative response of PBMC, HD 230 ([2]; healthy donor 230, 0401, R, 100 and 10 microgram/ml, 7 days, 3H-thymidine incorporation)	Peptide-induced proliferative response of PBMC, RA 191 ([4]; RA patient 191, 0401, R, 100 and 10 microgram/ml, 7 days, 3H-thymidine incorporation)
< 1000 nM	–	GRSFTLASSETGVGAP [compound 41, GRSFTLASSETGVGAP]	relatively high affinity	pos (positive responses to both 100 and 10 microgram/ml of peptide or sets of peptides (SI>2 were regarded positive))	induced only responses in healthy donors	observed in one or more donors	–	–	–	–	–	–	–	–	–	–
–	–	LAGAMVWALDLDDFQG [compound 55, LAGAMVWALDLDDFQG]	relatively high affinity	–	–	observed in one or more donors	< 1000 nM	pos (positive responses to both 100 and 10 microgram/ml of peptide or sets of peptides (SI≧2 were regarded positive))	appeared to respond	observed in RA patients only	–	–	–	–	–	–
–	–	MGIPTFGRSFTLASSE [compound 40, MGIPTFGRSFTLASSE]	relatively high affinity	–	–	observed in one or more donors	< 1000 nM	pos (positive responses to both 100 and 10 microgram/ml of peptide or sets of peptides (SI≧2 were regarded positive))	appeared to respond	observed in RA patients only	pos (positive responses to both 100 and 10 microgram/ml of peptide or sets of peptides (SI≧2 were regarded positive))	–	–	–	–	–
–	–	MLRLGAPASKLVMGIP [compound 38, MLRLGAPASKLVMGIP]	intermediate relative affinity	–	–	observed in one or more donors	10000 to 100000 nM	pos (positive responses to both 100 and 10 microgram/ml of peptide or sets of peptides (SI≧2 were regarded positive))	appeared to respond	observed in RA patients only	pos (positive responses to both 100 and 10 microgram/ml of peptide or sets of peptides (SI≧2 were regarded positive))	pos (positive responses to both 100 and 10 microgram/ml of peptide or sets of peptides (SI≧2 were regarded positive))	pos (positive responses to both 100 and 10 microgram/ml of peptide or sets of peptides (SI≧2 were regarded positive))	pos (positive responses to both 100 and 10 microgram/ml of peptide or sets of peptides (SI≧2 were regarded positive))	–	–
< 1000 nM	–	PNLKTLLSVGGWNFGS [compound 12, PNLKTLLSVGGWNFGS]	relatively high affinity	–	induced only responses in healthy donors	observed in one or more donors	–	–	–	–	–	–	–	–	pos (positive responses to both 100 and 10 microgram/ml of peptide or sets of peptides (SI>2 were regarded positive))	–
–	–	SPLFRGQEDASPDRFS [compound 34, SPLFRGQEDASPDRFS]	relatively high affinity	–	–	observed in one or more donors	< 1000 nM	pos (positive responses to both 100 and 10 microgram/ml of peptide or sets of peptides (SI≧2 were regarded positive))	appeared to respond	observed in RA patients only	–	–	–	–	–	–
–	–	YTSWSQYREGDGSCFP [peptide 2, YTSWSQYREGDGSCFP]	intermediate relative affinity	–	–	observed in one or more donors	10000 to 100000 nM	pos (positive responses to both 100 and 10 microgram/ml of peptide or sets of peptides (SI≧2 were regarded positive))	appeared to respond	observed in RA patients only	pos (positive responses to both 100 and 10 microgram/ml of peptide or sets of peptides (SI≧2 were regarded positive))	pos (positive responses to both 100 and 10 microgram/ml of peptide or sets of peptides (SI≧2 were regarded positive))	–	pos (positive responses to both 100 and 10 microgram/ml of peptide or sets of peptides (SI≧2 were regarded positive))	–	pos (positive responses to both 100 and 10 microgram/ml of peptide or sets of peptides (SI≧2 were regarded positive))
–	binds	B1	–	–	–	–	–	–	–	–	–	–	–	–	–	–
